Results reported in US8741940B2, “Microbicidal composition” (Rohm and Haas Company, priority 2005, dated 2014).
Like-named read-outs stand apart in the source and are kept apart here.

Tests used:
Assay type in all cases: cell-based
[1] = system: Escherichia coli (E. coli—ATCC #8739); assay: Synergy test, microtiter plate high resolution MIC assay, bacterium in M9GY medium; set-up: key to SI (synergy index): SI = Qa/QA + Qb/QB; >1 antagonism, lower SI = greater synergy; Qa (First Component A) / Qb (Second Component B): unit: ppm; details: for MIC: Escherichia coli
Method: (§1) When the sum of Qa/QA and Qb/QB is greater than one, antagonism is indicated. […] The lower the SI, the greater the synergy shown by that particular mixture. The minimum inhibitory concentration (MIC) of a microbicide is the lowest concentration tested under a specific set of conditions that prevents the growth of added microorganisms.
(§2) Synergy tests were conducted using standard microtiter plate assays with media designed for optimal growth of the test microorganism. Minimal salt medium supplemented with 0.2% glucose and 0.1% yeast extract (M9GY medium) was used for testing bacteria; Potato Dextrose Broth (PDB medium) was used for testing yeast and mold. In this method, a wide range of combinations of microbicides and other personal care raw materials was tested by conducting high resolution MIC assays in the presence of various concentrations of BBIT or MBIT. High resolution MICs were determined by adding varying amounts of microbicide to one column of a microtitre plate and doing subsequent […] dilutions using an automated liquid handling system to obtain a series of endpoints ranging from 2 ppm to 10,000 ppm active ingredient.
(§3) The bacteria were used at a concentration of about 5 ×10^6 bacteria per mL and the yeast and mold at 5×10^5 fungi per mL. These microorganisms are representative of natural contaminants in many consumer and industrial applications. […] (yeast and mold) or 30° C. (bacteria).
(§4) In each test, First Component (A) was BBIT and the Second Component (B) was the other commercial microbicide.
(§5) In each test, First Component (A) was MBIT and the Second Component (B) was the other commercial microbicide.

[2] = system: Candida albicans (C. albicans—ATCC 10231); assay: Synergy test, microtiter plate high resolution MIC assay, yeast in PDB medium; set-up: key to SI (synergy index): SI = Qa/QA + Qb/QB; >1 antagonism, lower SI = greater synergy; Qb (Second Component B) / Qa (First Component A): unit: ppm; details: for MIC: Candida albicans
Method: as §1, §2, §3, §4, §5

[3] = system: Aspergillus niger (A. niger—ATCC 16404); assay: Synergy test, microtiter plate high resolution MIC assay, mold in PDB medium; set-up: key to SI (synergy index): SI = Qa/QA + Qb/QB; >1 antagonism, lower SI = greater synergy; Qb (Second Component B) / Qa (First Component A): unit: ppm; details: for MIC: Aspergillus niger
Method: as §1, §2, §3, §4, §5

[4] = A=MBIT, B=2-bromo-2-nitro-propane-1,3-diol (BNPD), E. coli 8739 - M9GY, 24 hours
[5] = A=MBIT, B=2-bromo-2-nitro-propane-1,3-diol (BNPD), C. albicans 10231 - PDB, 24 hours
[6] = A=MBIT, B=2-bromo-2-nitro-propane-1,3-diol (BNPD), A. niger 16404 - PDB, 4 days
[7] = A=MBIT, B=Benzalkonium chloride (Hyamine 3500), E. coli 8739 - M9GY, 24 hours
[8] = A=MBIT, B=Benzalkonium chloride (Hyamine 3500), C. albicans 10231 - PDB, 24 hours
[9] = A. niger 16404, PDB, 7 days, 25° C.
[10] = A=MBIT, B=Benzalkonium chloride (Hyamine 3500), A. niger 16404 - PDB, 4 days
[11] = A=MBIT, B=Benzisothiazolinone (BIT), E. coli 8739 - M9GY, 24 hours
[12] = A=MBIT, B=Benzisothiazolinone (BIT), C. albicans 10231 - PDB, 48 hours
[13] = A=MBIT, B=Benzisothiazolinone (BIT), A. niger 16404 - PDB, 7 days

Compound: O=[N+]([O-])C(Br)(CO)CO [BNPD, 2-bromo-2-nitro-propane-1,3-diol]
- Qb (Second Component B) [1, 4]: 8
- SI (synergy index) [1, 4]: 1.00
- MIC ([1]; ATCC8739, E. coli 8739, M9GY, 48 hours, 30° C., read-out: MIC of the component acting alone (QA / QB)): 10 µg/mL
- Qb (Second Component B) [2, 5]: 1000
- SI (synergy index) [2, 5]: 1.00
- MIC ([2]; ATCC10231, C. albicans 10231, PDB, 48 hours, 25° C., read-out: MIC of the component acting alone (QA / QB)): 2000 µg/mL
- Qb (Second Component B) [3, 6]: 2000
- SI (synergy index) [3, 6]: 1.00
- MIC ([3]; ATCC16404, 168 h, A. niger 16404, PDB, 7 days, 25° C., read-out: MIC of the component acting alone (QA / QB)): 2000 µg/mL

Compound: CC(C)(C)CC(C)(C)c1ccc(OCCOCC[N+](C)(C)Cc2ccccc2)cc1 [Benzethonium chloride]
- Qb (Second Component B) ([1]; A=MBIT, B=Benzethonium chloride (Hyamine 1622), E. coli 8739 - M9GY, 24 hours): 20
- Qb (Second Component B) ([2]; A=MBIT, B=Benzethonium chloride (Hyamine 1622), C. albicans 10231 - PDB, 24 hours): 4
- Qb (Second Component B) ([3]; A=MBIT, B=Benzethonium chloride (Hyamine 1622), A. niger 16404 - PDB, 4 days): 10

Compound: Zinc pyrithione
- Qb (concentration of Second Component B = Zinc pyrithione at the end point) [1]: 2
- SI (synergy index) [1]: 1.00
- Qb (concentration of Second Component B = Zinc pyrithione at the end point) [2]: 30
- SI (synergy index) [2]: 1.00
- Qb (concentration of Second Component B = Zinc pyrithione at the end point) [3]: 20
- SI (synergy index) [3]: 1.00

Compound: C/C=C/C=C/C(=O)[O-].[K+] [Potassium sorbate]
- SI [1]: 1.00
- SI (synergy index) [1]: 1.00
- MIC ([1]; ATCC8739, 48 h, read-out: Qb (concentration of second component producing the end point, MIC)): 20000 µg/mL
- SI [2]: 1.00
- SI (synergy index) [2]: 1.00
- MIC ([2]; ATCC10231, 24 h, read-out: Qb (concentration of second component producing the end point, MIC)): 400 µg/mL
- SI [3]: 1.00
- SI (synergy index) [3]: 1.00
- MIC ([3]; ATCC16404, 96 h, read-out: Qb (concentration of second component producing the end point, MIC)): 10000 µg/mL

Compound: O=C(O)CN(CCN(CC(=O)O)CC(=O)O)CC(=O)O [EDTA, Ethylenediamine tetraacetic acid]
- Qb (Second Component B = EDTA) [1]: 40000
- SI ([1]; E. coli 8739 - M9GY, 72 hours, BBIT + EDTA): 1.00
- Qb (Second Component B = EDTA) [2]: 600
- SI ([2]; C. albicans 10231 - PDB, 24 hours, BBIT + EDTA): 1.00
- Qb (Second Component B = EDTA) [3]: 1600
- SI ([3]; A. niger 16404 - PDB, 7 days, BBIT + EDTA): 1.00

Compound: Benzalkonium chloride
- Qb (Second Component B) [1, 7]: 10
- SI (synergy index) [1, 7]: 1.00
- MIC of the component acting alone (QA / QB) ([1]; E. coli 8739, M9GY, 48 hours, 30° C.): 3 ppm
- Qb (Second Component B) [2, 8]: 60
- SI (synergy index) [2, 8]: 1.00
- MIC of the component acting alone (QA / QB) ([2]; C. albicans 10231, PDB, 24 hours, 25° C.): 60 ppm
- MIC of the component acting alone (QA / QB) [3, 9]: 200 ppm
- Qb (Second Component B) [3, 10]: 200
- SI (synergy index) [3, 10]: 1.00

Compound: O=c1[nH]sc2ccccc12 [Benzisothiazolinone, 1,2-benzisothiazolin-3-one]
- Qb (Second Component B) [1, 11]: 20
- SI (synergy index) [1, 11]: 1.00
- MIC of the component acting alone (QA / QB) ([1]; E. coli 8739, M9GY, 72 hours, 30° C.): 8 ppm
- Qb (Second Component B) [2, 12]: 30
- SI (synergy index) [2, 12]: 1.00
- MIC of the component acting alone (QA / QB) ([2]; C. albicans 10231, PDB, 48 hours, 25° C.): 30 ppm
- MIC of the component acting alone (QA / QB) [3, 9]: 100 ppm
- Qb (Second Component B) [3, 13]: 300
- SI (synergy index) [3, 13]: 1.00

Compound: O=C([O-])c1ccccc1.[Na+] [Sodium benzoate]
- SI (synergy index) ([1]; E. coli 8739, M9GY, 24 hours): 1.00
- Qb (concentration of second component producing the end point, MIC) ([1]; E. coli 8739, M9GY, 24 hours, alone where Qa = 0, otherwise in the mixture): 10000 ppm
- SI ([1]; E. coli 8739 - M9GY, 24 hours, BBIT with Sodium benzoate): 1.00
- SI (synergy index) ([2]; C. albicans 10231, PDB, 48 hours): 1.00
- Qb (concentration of second component producing the end point, MIC) ([2]; C. albicans 10231, PDB, 48 hours, alone where Qa = 0, otherwise in the mixture): 2000 ppm
- SI ([2]; C. albicans 10231 - PDB, 48 hours, BBIT with Sodium benzoate): 1.00
- SI (synergy index) ([3]; A. niger 16404, PDB, 7 days): 1.00
- Qb (concentration of second component producing the end point, MIC) ([3]; A. niger 16404, PDB, 7 days, alone where Qa = 0, otherwise in the mixture): 10000 ppm
- SI ([3]; A. niger 16404 - PDB, 7 days, BBIT with Sodium benzoate): 1.00
